Results reported in patent US9540427B2, “Peptide-based stat inhibitor” (The United States of America, as represented by the …, priority 2007, dated 2017).

Experiments:
[1] = test system: STAT3-deficient MEFs; assay: Survival of STAT3-deficient MEFs; type: cell-based, mouse; settings: STAT3-deficient MEFs (data not shown)
Text: (§1) Furthermore, survival of normal mouse embryonic fibroblasts (MEFs) and STAT3-deficient MEFs was not affected by treatment with STAT3-Hel2A-2 (data not shown). […] This observation potentially provides a basis for an enhanced therapeutic ratio, based on differential inhibitor effects

[2] = test system: normal mammary epithelial cells MCF-10A; assay: MTT assay of growth and viability, MCF-10A; type: cell-based; settings: escalating doses
Procedure: Three breast cancer cell lines (MDA-MB-231, T47D, and MDA-MB-435) and normal breast epithelial (MCF-10A) were treated with escalating doses of STAT3-Hel2A-2 (SEQ ID NO: 20). Cell proliferation and cell death were estimated by MTT assay.

[3] = test system: normal mouse embryonic fibroblasts (MEFs); assay: Survival of normal mouse embryonic fibroblasts; type: cell-based; settings: normal MEFs (data not shown)
Text: as §1

## CCCC[C@H](NC(=O)[C@H](CCCNC(=N)N)NC(=O)[C@H](CCCNC(=N)N)NC(=O)[C@H](CC(N)=O)NC(=O)[C@@H]1CCCN1C(=O)[C@H](Cc1ccccc1)NC(=O)[C@H](Cc1c[nH]c2ccccc12)NC(=O)[C@@H](NC(=O)[C@H](CCCCN)NC(=O)[C@@H](NC(=O)[C@H](CCC(N)=O)NC(=O)[C@H](CCCNC(=N)N)NC(=O)[C@H](Cc1ccc(O)cc1)NC(=O)[C@H](CC(C)C)NC(=O)[C@H](CCCCN)NC(=O)[C@H](Cc1c[nH]cn1)NC(=O)[C@H](CC(C)C)NC(=O)[C@H](CCC(N)=O)NC(=O)[C@H](CCC(=O)O)NC(=O)[C@H](CC(C)C)NC(=O)[C@H](Cc1ccc(O)cc1)NC(=O)[C@H](CCCNC(=N)N)NC(=O)[C@@H](NC(=O)[C@H](CC(=O)O)NC(=O)[C@@H](N)CC(C)C)[C@@H](C)O)[C@@H](C)CC)[C@@H](C)CC)C(=O)N[C@@H](CCCCN)C(=O)N[C@@H](Cc1c[nH]c2ccccc12)C(=O)N[C@@H](CCCCN)C(=O)N[C@@H](CCCCN)C(N)=O [Hel2A-2-Pen]
[1]
  Survival of STAT3-deficient cells: not affected
[2]
  Growth and viability of normal cells: not altered significantly
[3]
  Survival of normal cells: not affected
